Columns and labels:
DU145 cells = assay: Matrigel invasion assay; format: cell-based; conditions: 10 μM, 22 h
Protocol: DU145 cells (8.0 × 10^4 cells/ml) in RPMI containing 0.1% fetal bovine serum (FBS) were seeded into the top chamber of BioCoat control inserts (pore size 8 μm) or BioCoat Matrigel invasion inserts with Matrigel-coated filters (BD Pharmingen). To stimulate invasion, media in the lower chamber of the insert contained 20% FBS. […] After incubation, noninvasive cells were removed using a cotton swab, and invasive cells were fixed in 100% methanol and stained with 1% crystal violet. After staining, cells were counted under a microscope (200× magnification). The percentage invasion was determined by cell counts in 5 fields of the number of cells that invaded the Matrigel matrix relative to the number of cells that migrated through the control insert.
After 22 hours, noninvasive cells were removed and invasive cells were fixed in 100% methanol, stained in […] crystal violet solution, and photographed. The number of cells that invaded the Matrigel matrix was determined by cell counts in 5 fields relative to the number of cells that migrated through the control insert. The data shown is the mean ± S.E.M. of two independent experiments. Statistical significance versus the control DMSO was determined by unpaired t-test. ***, p < 0.001.

PKD1 = molecular target: T1, PKD1 (Homo sapiens, UniProt Q15139); assay: In vitro radiometric PKD kinase assay; format: biochemical; design: purchased Biomol International; conditions: for IC50: radiometric kinase assay, mean ± S.E.M.; for fold greater selectivity toward PKD1: versus PKD2 and PKD3
T1 sequence (Q15139 1-912): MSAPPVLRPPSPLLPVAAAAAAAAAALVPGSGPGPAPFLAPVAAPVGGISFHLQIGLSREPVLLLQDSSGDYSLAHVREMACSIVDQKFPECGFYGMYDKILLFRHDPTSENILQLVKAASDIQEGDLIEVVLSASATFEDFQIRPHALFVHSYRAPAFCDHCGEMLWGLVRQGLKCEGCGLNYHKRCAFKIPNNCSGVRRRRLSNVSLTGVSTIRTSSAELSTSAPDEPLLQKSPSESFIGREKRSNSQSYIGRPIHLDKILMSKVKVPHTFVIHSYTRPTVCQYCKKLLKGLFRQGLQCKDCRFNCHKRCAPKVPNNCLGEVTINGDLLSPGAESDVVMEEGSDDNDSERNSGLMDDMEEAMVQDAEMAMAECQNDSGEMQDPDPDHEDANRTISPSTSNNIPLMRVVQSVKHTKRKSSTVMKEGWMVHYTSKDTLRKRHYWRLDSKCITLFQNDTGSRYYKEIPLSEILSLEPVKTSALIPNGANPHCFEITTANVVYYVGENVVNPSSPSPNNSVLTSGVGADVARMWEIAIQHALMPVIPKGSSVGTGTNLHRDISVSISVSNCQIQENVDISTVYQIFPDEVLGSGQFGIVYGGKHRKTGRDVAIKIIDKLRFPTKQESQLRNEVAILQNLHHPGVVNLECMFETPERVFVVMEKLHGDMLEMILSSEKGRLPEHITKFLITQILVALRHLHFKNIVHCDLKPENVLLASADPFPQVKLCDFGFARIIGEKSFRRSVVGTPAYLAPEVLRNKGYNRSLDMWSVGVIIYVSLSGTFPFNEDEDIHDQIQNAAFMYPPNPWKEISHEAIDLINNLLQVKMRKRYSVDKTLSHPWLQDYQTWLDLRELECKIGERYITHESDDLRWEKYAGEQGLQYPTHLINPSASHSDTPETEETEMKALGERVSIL
Protocol: In vitro radiometric kinase assays were conducted as previously described. Briefly, 1 μCi [γ-^32P] ATP (PerkinElmer Life Sciences), 70 μM ATP, 50 ng purified recombinant human PKD1 (Biomol International, Plymouth Meeting, PA), PKD2 (SignalChem, Richmond, BC, Canada), or CAMKIIα (Enzo Life Sciences) or 75 ng PKD3 (Enzo Life Sciences), and 2.5 μg syntide-2 (Sigma) in 50 μl kinase buffer containing 50 mM Tris-HCl, pH 7.5, 4 mM MgCl2, and 10 mM β-mercaptoethanol. For the CAMK assay, 0.5 mM CaCl2 and 30 ng/μl calmodulin were pre-incubated for 10 min on ice, and then added to each reaction mixture. The reaction was incubated at 30°C for 10 min, and 25 μl of the reaction mixture was then spotted onto Whatman P81 filter paper (Whatman Inc., Clifton, NJ). The filter papers were washed 3 times in 0.5% phosphoric acid, air-dried, and counted using a Beckman LS6500 multipurpose scintillation counter (Beckman).
The in vitro inhibitory activities of the novel compounds toward PKD were determined using radiometric PKD kinase activity assays. Recombinant human PKD1, -2, or -3 was incubated with the substrate, syntide-2, in the presence of 10 different concentrations of each compound. IC50 values were determined for each compound by plotting percent PKD activity versus compound concentration for each point.
A-E, inhibition of recombinant human PKD1 in vitro. […] A 10-point concentration curve was generated for each compound for IC50 determination. Each IC50 was determined as the mean ± S.E.M. of three independent experiments with triplicate determinations at each concentration in each experiment. Representative graphs are shown.

MTT cytotoxicity assay = conditions: human
Protocol: PC3 cells were seeded into 96-well plates (3000 cells/well) and allowed to attach overnight. Cells were then incubated in media containing 0.3-100 μM inhibitors for 72 h. 3-(4,5-Dimethylthiazol-2-yl)-2,5-diphenyltetrazolium bromide methyl thiazolyl tetrazolium (MTT) solution was prepared at 2 mg/ml concentration in PBS, sterilized by filtering through a 0.2 μm filter, and wrapped in foil to protect from light. 50 μl MTT solution was added to each well and incubated for 4 h at 37°C. Then, media was removed and 200 μl DMSO was added to each well. The plate was mixed for 5 min and the optical density was determined at 570 nm.
PC3 cells were seeded into 96-well plates (3000 cells/well) and were then incubated in media containing 0.3-100 μM inhibitors for 72 h. MTT solution was added to each well and incubated for 4 h. Optical density was read at 570 nm to determine cell viability. The EC50 was determined as the mean ± S.E.M. of three independent experiments for each compound.

O=C1NCCCc2c1oc1ccc(O)cc21 [CID755673, 7-Hydroxy-2,3,4,5-tetrahydro-[1]benzoxolo[2,3-c]azepin-1-one]
inhibition of invasion (in words) (DU145 cells): significantly inhibited invasion | IC50 (PKD1): 0.182 ± 0.027 µM | EC50 at 72 h (MTT cytotoxicity assay; PC3 cells): 320 µM

O=C1NCCSc2c1sc1ccc(O)cc21 [kb-NB142-70]
percent invasion (DU145 cells): 10% | fold greater inhibition of PKD1 than the parental compound CID755673 (PKD1): 7 fold | IC50 (PKD1): 0.0283 ± 0.0023 µM | fold greater selectivity toward PKD1 (PKD1): about 2 fold | EC50 at 72 h (MTT cytotoxicity assay; PC3 cells): 8.03 µM

COc1ccc2sc3c(c2c1)SCCNC3=O [kb-NB165-09]
percent invasion (DU145 cells): 10% | IC50 (PKD1): 0.0825 ± 0.0046 µM | EC50 at 72 h (MTT cytotoxicity assay; PC3 cells): 50 µM

O=C1NCCSc2c1sc1ccc(O)c(I)c21 [kb-NB165-31]
inhibition of invasion (in words) (DU145 cells): levels similar to the parental compound | IC50 (PKD1): 0.114 ± 0.0239 µM | EC50 at 72 h (MTT cytotoxicity assay): 31.9 µM

O=C1NCCCSc2c1sc1ccc(O)cc21 [kb-NB165-92]
inhibition of invasion (in words) (DU145 cells): levels similar to the parental compound | IC50 (PKD1): 0.111 ± 0.006 µM | fold reduction of potency for PKD1 (PKD1; versus kb-NB142-70): 2-4 fold | EC50 at 72 h (MTT cytotoxicity assay): 78.3 µM

COc1ccc2sc3c(c2c1)SCCCNC3=O [kb-NB184-02]
inhibition of invasion (in words) (DU145 cells): levels similar to the parental compound | IC50 (PKD1): 0.193 ± 0.0274 µM | fold greater selectivity toward PKD1 (PKD1): about 2 fold | EC50 at 72 h (MTT cytotoxicity assay): 33.8 µM
